Laboratory results taken from ChEMBL document CHEMBL6092203, “Discovery of Novel PROTAC-Based HPK1 Degraders with High Potency and Selectivity for Cancer Immunotherapy” (J Med Chem, 2024).
Calls of active or inactive are those of the source. No cut-off for these calls is given here.

Target: Protein cereblon/Mitogen-activated protein kinase kinase kinase kinase 1 (Homo sapiens, UniProt Q92918+Q96SW2)
Test: PROTAC activity at CRBN/HPK1 in human Jurkat cells assessed as HPK1 degradation at 0.01 uM measured after 24 hrs by Western blotting analysis
Format: cell-based

Protein cereblon/Mitogen-activated protein kinase kinase kinase kinase 1, sequence (Q92918 whole entry, looked up): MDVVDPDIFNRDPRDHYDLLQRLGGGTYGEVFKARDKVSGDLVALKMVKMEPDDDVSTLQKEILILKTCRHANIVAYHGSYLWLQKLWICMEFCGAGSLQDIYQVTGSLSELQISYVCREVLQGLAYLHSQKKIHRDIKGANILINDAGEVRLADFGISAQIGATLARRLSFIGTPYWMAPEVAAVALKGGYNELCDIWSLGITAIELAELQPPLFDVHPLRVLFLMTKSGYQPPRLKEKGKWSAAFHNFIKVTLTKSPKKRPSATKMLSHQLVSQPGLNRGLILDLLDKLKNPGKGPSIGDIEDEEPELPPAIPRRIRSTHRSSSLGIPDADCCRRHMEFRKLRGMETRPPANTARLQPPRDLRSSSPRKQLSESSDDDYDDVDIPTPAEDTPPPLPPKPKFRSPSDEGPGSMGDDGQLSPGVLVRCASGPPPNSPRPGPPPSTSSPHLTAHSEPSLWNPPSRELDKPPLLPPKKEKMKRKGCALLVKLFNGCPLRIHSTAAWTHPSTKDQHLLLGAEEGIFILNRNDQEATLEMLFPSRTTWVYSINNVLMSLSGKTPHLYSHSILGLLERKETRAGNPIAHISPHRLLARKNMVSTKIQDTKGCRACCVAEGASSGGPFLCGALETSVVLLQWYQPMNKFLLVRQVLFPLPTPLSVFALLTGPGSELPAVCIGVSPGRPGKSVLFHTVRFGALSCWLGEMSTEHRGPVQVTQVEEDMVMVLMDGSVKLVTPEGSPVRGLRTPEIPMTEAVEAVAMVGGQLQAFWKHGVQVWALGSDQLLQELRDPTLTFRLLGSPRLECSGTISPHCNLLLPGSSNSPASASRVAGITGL
Protein cereblon/Mitogen-activated protein kinase kinase kinase kinase 1, sequence (Q96SW2 whole entry, looked up): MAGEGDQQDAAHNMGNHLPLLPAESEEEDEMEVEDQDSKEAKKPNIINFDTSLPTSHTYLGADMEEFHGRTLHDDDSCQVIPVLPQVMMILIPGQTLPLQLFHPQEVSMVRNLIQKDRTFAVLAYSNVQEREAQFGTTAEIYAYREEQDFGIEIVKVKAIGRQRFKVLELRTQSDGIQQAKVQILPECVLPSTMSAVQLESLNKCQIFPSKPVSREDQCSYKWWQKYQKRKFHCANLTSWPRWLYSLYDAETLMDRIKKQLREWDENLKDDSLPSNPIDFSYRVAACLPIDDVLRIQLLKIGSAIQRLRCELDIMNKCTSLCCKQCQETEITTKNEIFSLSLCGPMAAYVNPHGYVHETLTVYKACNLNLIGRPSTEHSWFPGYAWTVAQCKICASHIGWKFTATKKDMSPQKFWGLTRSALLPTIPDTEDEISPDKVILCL

**Q.** Which Activity does the source give for `O=C1CCN(c2cc(C(=O)N3CCC(CC4CCN(c5ccc(-c6cnc7[nH]cc(-c8cnn(CC(F)(F)F)c8)c7n6)cn5)CC4)CC3)ccc2Cl)C(=O)N1` here?
**A.** Active
